From US8124408B2, “Preparation of inactivated artificial antigen presenting cells and their use in cell therapies” (Janssen Pharmaceutica N.V., priority 2006, dated 2012)
Read-outs that look alike come from different tables or passages of the source.

What was measured:
[1] = system: CD8^+ T cells
Source text: Human rIL-2 (20 units/ml) and rIL-7 (30 units/ml) were each added to the culture at day 5. The CD8^+ T cells were restimulated twice on the seventh and fifteenth days of the culture period with non-CD8 adherent cells in PBMC from the same donor in the presence of the MART-1 peptides. The expanded CD8^+ T cells were then stained with MART-1 tetramers (Beckman Coulter) consisting of four MHC molecules bound to the MART-1 peptide, which was conjugated to a fluorescent protein, and analyzed by FACS.

[2] = system: baculovirus; assay: baculovirus titer by rapid microtiter assay after UVADEX/UVA treatment of infected Sf9 cells; format: cell-based; settings: UVADEX 5 μg/ml
Experimental: The treated cells were then cultured at 28° C. for 4 days. Cultured supernatant was collected and used to infect fresh, uninfected cultures of Sf9 cells seeded in 96-well plates. Baculovirus present in these Sf9 cultures was detected by a rapid microtiter assay (Invitrogen) using a gp64-specific antibody, and baculovirus titers were calculated.
In a similar experiment, Sf9 cells were infected with the titrated doses of baculovirus as described above. […] The treated cells were then cultured at 28° C. for four days. The culture supernatant was collected and used to infect a new culture of Sf9 cells seeded in 96-well plates. Baculovirus in the Sf9 cells was detected by a rapid microtiter assay (Invitrogen). The culture plates were overlaid with methylcellulose and cultured for 48 hrs. Baculovirus was detected by immunoassay with a gp64-specific antibody (Invitrogen). The number of foci in each well was counted and the virus titer (pfu/ml) of the supernatant of the infected cells was calculated according to the manufacturer's instructions.

[3] = system: CD8^+ T cells; assay: K^b/OVA8 tetramer staining of mouse CD8+ T cells activated with xAPCs; format: cell-based, mice
Experimental: Lanes 1 and 2, percentage of stained CD8^+ T cells isolated form and activated from wild type mice (B6), as described in FIG. 8A (performed as a positive control).
IL-2 was added on day three and day five of the xAPC/naïve CD8^+ T cell coculture. The coculture was split on day seven of the coculture period, and on day nine the cultured CD8^+ T cells were collected. An OVA8/MHC tetramer (Beckman Coulter) preparation was prepared and 10 μl was mixed with 1×10^6 CD8^+ T cells/100 μl of FACS buffer (0.5% BSA, 0.2%, NaN3 in PBS). The K^b/OVA8 tetramers consisted of four MHC molecules bound to the OVA8 peptide, which was conjugated to a fluorescent protein. The mixture was incubated at room temperature for 30 minutes and washed in PBS, and then spun down at 400×g for 5 minutes. The cell pellet was resuspended in FACS buffer (500 μl) and immediately read on a FACScan flow cytometry machine at an excitation wavelength of 486 nm-580 nm and an emission wavelength of 586 nm-590 nm.

[4] = system: HLA-A2, B7-1, or ICAM-1; settings: UVADEX 5 μg/ml, UVA 0, 5 or 15 minutes
Experimental: (§1) FACS analysis was carried out by independently using antibodies specific for human HLA, human B7.1, and ICAM-1, as indicated.
The xAPC cultures were washed and stained with monoclonal antibodies specific for HLA-A2, B7-1, or ICAM-1 and analyzed by FACS.

[5] = system: Drosophila clone B xAPCs; assay: xAPC proliferation, viable cell count by trypan blue staining; format: cell-based
Source text: (§2) Viable (i.e., live) xAPCs were counted on day 1, day 5, day 9, day 14, and day 16 post-treatment by trypan blue staining of each culture.
as §2

[6] = system: xenogenic HLA A2.1, B7-1, B7-2, and β2m transcripts; assay: RT-PCR of xenogenic nucleic acid transcription in xAPC/clone D cocultures; format: cell-based, Drosophila; settings: UVADEX 5 μg/ml and UVA 5, 15 or 30 minutes, 10 weeks coculture with clone D
Source text: RT-PCR products were then visualized by agarose gel electrophoresis.
It was possible that xenogenic nucleic acid introduced into the xAPCs might have remained active, even though the xAPCs themselves were rendered nonproliferative. […] Each culture of xAPCs was washed and cocultured for 10 weeks with an indicator Drosophila cell line designated herein as clone D, which is a cell line that has not been modified by introduction of xenogenic nucleic acid. Reverse transcriptase (RT)-PCR reactions using primers specific for xenogenic HLA A2.1, B7-1, B7-2, and β2m transcripts were then performed on extracts of the cocultures.

[7] = system: lytic virus associated with Drosophila xAPCs; assay: infectivity of xAPC viral stock on Drosophila clone D indicator cells; format: cell-based
Experimental: Thus, a xAPC culture containing approximately 6×10^8 Drosophila xAPCs (clone B) was collected, suspended in 0.6 ml Schneider's media on ice, and sonicated for 30 seconds. Cell debris was pelleted by centrifugation, and the supernatant collected and layered onto a cesium chloride (CsCl) cushion, which was at a density of 1.2 (20% w/w CsCl), at a ratio of three volumes of supernatant to one volume of CsCl. The supernatant-loaded CsCl cushion was then ultracentrifuged at 25,000 rpm for four hours. Viral fractions were collected and the fraction densities measured. Three milliliter fractions at a density of 1.0 to 1.2 were pooled and dialyzed against phosphate-buffered saline (PBS), generating a viral stock, and the viral stock stored at −80° C. until use. […] Independent cultures (1×10^6 cells/culture) of the Drosophila clone D indicator cell line were incubated at 28° C. with either the treated and untreated viral aliquots. After a three-day incubation period, the indicator cell cultures were harvested and stained with propidium iodide (PI) (1 μg/1×10^6 cells) at 4° C. for 10 minutes. The live and lytic cells were analyzed by FACS, with the results depicted in FIGS. 4A-4C.
After a three-day incubation period, the percentage of viable cells was quantified in each indicator cell line culture. […]

[8] = system: HLA-A2, B7-1, and ICAM-1; assay: FACS of exogenous molecules in xAPC clone B/clone D cocultures; format: cell-based, Drosophila; settings: UVADEX/UVA 5 μg/ml, 10 weeks coculture with clone D
Experimental: as §1
For comparison, γ-radiation-treated xAPC clone B/clone D cocultures and untreated xAPC clone B/clone D cocultures were analyzed by FACS as well.
The cells from each culture were washed and then and cocultured with clone D indicator cells for 10 weeks. The cocultured cells were collected and aliquoted, and each aliquot was stained with one of HLA-A2, B7-1, and ICAM-1 fluorescein isothiocyanate (FITC)-conjugated monoclonal antibodies (mAbs), respectively. The stained cocultures were then analyzed by FACS.

[9] = system: baculovirus; assay: baculovirus/Sf9 infectivity assay; format: cell-based; settings: for Virus Titer (10^−4) / Virus Titer (10^−5): UVADEX 5 μg/ml, virus added, Sf9 cells, triplicate
Experimental: A baculovirus/Sf9 infectivity assay was used to determine if psoralen-derivative/UVA treatment was sufficient to inactivate viruses associated with virus-infected insect cells. Sf9 insect cells were infected with BacPAK6 viral stock and incubated at room temperature for one hour (BacPAK6 baculovirus rapid titer kit; BD Biosciences Clontech). […] Five days after irradiation, culture supernatants were collected. From these, new viral stocks were prepared via serial dilutions of 10^−3, 10^−4 and 10^−5, respectively. These serially diluted stock dilutions were each used to infect a second set of fresh (i.e., not previously infected) Sf9 cell cultures. This second set of cultures was overlaid with methylcellulose and grown for approximately 48 hours. Culture supernatants of this second set of cultures were discarded and a mouse monoclonal anti-gp64 (baculovirus-specific) protein antibody (Invitrogen) was added. After an inbubation period and several washes to remove unbound anti-gp64 antibody, a goat-anti-mouse polyclonal antibody conjugated to horseradish peroxidase (i.e., secondary antibody obtained from Invitrogen) was added. Unbound secondary antibody was removed with several washes, and […] was added. The number of stained foci was counted and the virus titer (pfu/ml) was calculated according to the manufacturer's instructions.

[10] = system: CD8^+ T cells; assay: APC function of glutaraldehyde-fixed Drosophila xAPCs; format: cell-based; settings: xAPCs fixed with 0.3% glutaraldehyde
Source text: Inactivation of Drosophila cells was initially attempted with glutaraldehyde fixation in the absence of preservative.

[11] = UVA irradiation time 10 minutes

COc1c2occc2cc2ccc(=O)oc12 [UVADEX, 9-methoxy-7H-furo[3,2-g]-1-benzopyran-7-one]
Percent p/MHC tetramers of CD8^+ T cells (% Tetr + CD8^+) ([1]; Donor 1, MART-1 tetramer): 0.95% | Percent p/MHC tetramers of CD8^+ T cells (% Tetr + CD8^+) ([1]; Donor 2, MART-1 tetramer): 11.55% | Percent p/MHC tetramers of CD8^+ T cells (% Tetr + CD8^+) ([1]; Donor 3, MART-1 tetramer): 15.07% | Percent p/MHC tetramers of CD8^+ T cells (% Tetr + CD8^+) ([1]; Donor 4, MART-1 tetramer): 43.33% | baculovirus titer of culture supernatant ([2]; ten-minute UVA): no detectible baculovirus titer | baculovirus titer of culture supernatant ([2]; twenty-minute UVA): no detectible baculovirus titer | percentage of CD8^+ T cells stained with K^b/OVA tetramer versus non-treated xAPCs ([3]; MyD88 knock-out (MyD88^−/−) mice): no increase | percentage of CD8^+ T cells stained with K^b/OVA tetramer versus non-treated xAPCs ([3]; wild type (C57BL/6 (B6)) mice): higher percentage | surface expression level of the three exogenous molecules [4]: essentially the same | inactivation of Drosophila cells ([5]; 8-MOPs plus 1 Joule/cm^2 for 2 minutes): sufficient to inactivate Drosophila cells | cytotoxicity at 5 µg/mL ([5]; Drosophila melanogaster, light or radiation study, read-out: inhibition of viability of xAPC cultures): ~50% | viable xAPCs detected ([5]; two weeks after UVADEX/UVA treatment, any treated culture): almost no viable cells were detected | xenogenic HLA A2.1, B7-1, B7-2, and β2m transcripts [6]: absence of detectable levels | infection and lysis of indicator cell culture by serial dilutions of viral stock ([7]; 5 μg/ml for 10 minutes, dilutions 10^−1 to 10^−9, three-day incubation): almost completely incapable of infecting and lysing the indicator cell culture at all but the lowest dilution tested | indicator cell infection or lysis by microscopy ([7]; viral stock treated 5 μg/ml for 10 minutes, three-day incubation): failed to result in any observable indicator cell infection or lysis | expression of HLA-A2, B7-1, and ICAM-1 in cocultures [8]: undetectable levels | infectious virus in viral stock obtained in the supernatant ([9]; 5 mcg/ml 8-MOPs, UVA 320-380 nm for 5 minutes, infected Sf9 cells): does not contain infectious virus | Virus Titer (10^−4) ([9]; UVA irradiation time 5 minutes): 0 | Virus Titer (10^−5) ([9]; UVA irradiation time 5 minutes): 0 | Virus Titer (10^−4) [9, 11]: 0 | Virus Titer (10^−5) [9, 11]: 0

O=CCCCC=O [glutaraldehyde]
CD8^+ T cell activation, less than unfixed cells [10]: 2 fold | antigen-specific proliferation of CD8^+ T cells, less than unfixed cells [10]: 2.5- to 6 fold | generation of CD8^+ T cells capable of lysing target cells [10]: to a lesser degree than unfixed cells
